Test results published in patent US20200297790A1, “HERBAL COMPOSITION FOR PREVENTING OR TREATING BENIGN PROSTATIC HYPERPLASIA DISEASE” (priority 2017, published 2020).

Key:
[1] = tested on: LNCaP cells; assay: Inhibition of testosterone-induced proliferation of prostate epithelial cell line (MTT assay); format: cell-based, human; settings: 2 μM testosterone alone, 72 hours
Protocol: LNCaP cells, which are the prostate epithelial cells derived from human prostate cancer, were seeded at a density of 1×10^5 cells/well in 24-well plates containing an RPMI medium (Gibco U.S.A) and stabilized overnight. Then, the cells were cultured for 24 hours in a serum-free medium. After removal of the medium, the cells were incubated for 72 hours with 2 μM of testosterone (Tes) alone or in combination with 50, 100, or 200 μg/ml of the composite herbal extract of Preparation Example 1-6 or 4. Thereafter, growth of the cells was evaluated by MTT assay. Cell proliferation data were expressed as percentages of the cell counts relative to that of the Tes-treated group.
LNCaP cells, which are the prostate epithelial cells derived from human prostate cancer, were seeded at a density of 1×10^5 cells/well in 24-well plates containing an RPMI medium (Gibco, U.S.A) and stabilized overnight. […] Thereafter, growth of the cells was evaluated by MTT assay. Cell proliferation data were expressed as percentages of the cell counts relative to that of the Tes-treated group.
LNCaP cells, which are the prostate epithelial cells derived from human prostate cancer, were seeded at a density of 1×10^5 cells/well in 24-well plates containing an RPMI medium (Gibco, U.S.A) and stabilized overnight. […] Thereafter, growth of the cells was evaluated by MTT assay. […]

[2] = tested on: testosterone-induced benign prostatic hyperplasia rat model; assay: Inhibition of prostate enlargement (prostate weight) in testosterone-induced benign prostatic hyperplasia rat model; format: in vivo; settings: SD rats, testosterone 3 mg/kg s.c., extracts 300 mg/kg or finasteride 10 mg/kg orally once a day for 30 days
Text: (§1) After being acclimated for one week or longer, male SD rats 9 weeks old (weighing 350 g or less) were divided on the basis of weight into (1) a normal group, (2) a benign prostatic hyperplasia-induced and distilled water-administered group (negative control), (3) benign prostatic hyperplasia-induced and composite herbal extract-administered group ([…]), (4) benign prostatic hyperplasia-induced and single Semen Cuscutae herbal extract-administered group (Comparative Example 1-1), (5) benign prostatic hyperplasia-induced and single Semen nelumbinis herbal extract-administered group (Comparative Example 1-2), (6) benign prostatic hyperplasia-induced and single Taraxaci Herba herbal extract-administered group (Comparative Example 1-3), and (7) benign prostatic hyperplasia-induced and finasteride-administered group (positive control). In order to induce benign prostatic hyperplasia, testosterone (dissolved in cotton seed oil) was subcutaneously injected at a dose of 3 mg/kg once/three days for a total of 10 times. For the control, the same amount of cotton seed oil was subcutaneously injected. The composite herbal extract of Preparation Example 1-6 and the single herbal extracts of Comparative Example 1 were each orally administered at a dose of 300 mg/kg once a day for 30 days. […]

[3] = tested on: testosterone-induced benign prostatic hyperplasia rat model; assay: Size of acinus in excised prostate tissue (H&E staining) of testosterone-induced benign prostatic hyperplasia rat model; format: in vivo; settings: extracts 300 mg/kg or finasteride 10 mg/kg orally, 30 days
Protocol: For the control, the same amount of cotton seed oil was subcutaneously injected. […] For the negative control, oral administration of distilled water alone was carried out. From the starting day of the test, the rats were weighed five times in total at regular intervals of one week. On the next day after the final administration and treatment, the rats were sacrificed with carbon dioxide gas. The prostate glands were excised and weighed. % Inhibition of prostate enlargement was expressed according to the following mathematical formula on the basis of the weight measurements. […] Slides of the stained tissues were observed and photographed with an optical microscope. From the images, sizes of the acini in the prostate glands were measured. The reduction in the size of acinus of each experimental group is expressed as a percentage relative to the size of acinus of the normal group.

[4] = Body weight change in testosterone-induced benign prostatic hyperplasia rat model; format: in vivo; settings: weighed weekly, five times; extracts 300 mg/kg or finasteride 10 mg/kg orally, 30 days; FIG. 4
Text: as §1

Structure (SMILES) | growth of prostate epithelial cells when treated with testosterone [1] | Prostate weight/body weight [2] [g/kg] | % Inhibition of prostate enlargement ([2]; vs negative control) [%] | Reductive effect on size of acinus (%) [3] [%] | Size of acinus (%) ([3]; percentage relative to normal group) | body weight difference among testosterone-treated groups [4]
C[C@]12CC[C@H]3[C@@H](CCC4=CC(=O)CC[C@@]43C)[C@@H]1CC[C@@H]2O [testosterone] | about 62.5% | – | – | – | – | –
CC(C)(C)NC(=O)[C@H]1CC[C@H]2[C@@H]3CC[C@H]4NC(=O)C=C[C@]4(C)[C@H]3CC[C@]12C [Finasteride] | – | 1.31 ± 0.10 | 43 | 42 | 279 ± 10 | significant differences in body weight were not observed
